Experimental data as given in patent US8637484B2, “Modulation of growth hormone receptor expression and insulin-like growth factor expression” (Antisense Therapeutic Limited, priority 2003, dated 2014).
In the oligonucleotide strings, read from the 5' end, every base follows the letter of its sugar. An asterisk marks phosphorothioate; unmarked linkages are phosphodiester. Other units and linkages are bracketed, terminal groups are in braces. A string of capitals states the bases alone. e = 2'-O-(2-methoxyethyl) (MOE); [5mC] = 5-methylcytosine; d = 2'-deoxy (DNA)

Test system: mouse growth hormone receptor mRNA
Assay: Inhibition of mouse growth hormone receptor mRNA levels in b.END cells, quantitative real-time PCR
Format: cell-based
Set-up: % INHIB: concentration or dose not given beside the values
Conditions: dose-response studies
Protocol: The mouse brain endothelial cell line b.END was obtained from Dr. Werner Risau at the Max Plank Instititute (Bad Nauheim, Germany). b.END cells were routinely cultured in DMEM, high glucose (Gibco/Life Technologies, Gaithersburg, Md.) supplemented with 10% fetal calf serum (Gibco/Life Technologies, Gaithersburg, Md.). Cells were routinely passaged by trypsinization and dilution when they reached 90% confluence. Cells were seeded into 96-well plates (Falcon-Primaria #3872) at a density of 3000 cells/well for use in RT-PCR analysis.
When cells reached 65-75% confluency, they were treated with oligonucleotide. For cells grown in 96-well plates, wells were washed once with 100 μL OPTI-MEM™-1 reduced-serum medium (Invitrogen Corporation, Carlsbad, Calif.) and then treated with 130 μL of OPTI-MEM™-1 containing 3.75 μg/mL LIPOFECTIN™ (Invitrogen Corporation, Carlsbad, Calif.) and the desired concentration of oligonucleotide. Cells are treated and data are obtained in triplicate. After 4-7 hours of treatment at 37° C., the medium was replaced with fresh medium. Cells were harvested 16-24 hours after oligonucleotide treatment.
Total RNA was isolated using an RNEASY 96™ kit and buffers purchased from Qiagen Inc. (Valencia, Calif.) following the manufacturer's recommended procedures. Briefly, for cells grown on 96-well plates, growth medium was removed from the cells and each well was washed with 200 μL cold PBS. 150 μL Buffer RLT was added to each well and the plate vigorously agitated for 20 seconds. 150 μL of 70% ethanol was then added to each well and the contents mixed by pipetting three times up and down. The samples were then transferred to the RNEASY 96™ well plate attached to a QIAVAC™ manifold fitted with a waste collection tray and attached to a vacuum source. Vacuum was applied for 1 minute. 500 μL of Buffer RW1 was added to each well of the RNEASY 96™ plate and incubated for 15 minutes and the vacuum was again applied for 1 minute. An additional 500 μL of Buffer RW1 was added to each well of the RNEASY 96™ plate and the vacuum was applied for 2 minutes. 1 mL of Buffer RPE was then added to each well of the RNEASY 96™ plate and the vacuum applied for a period of 90 seconds. The Buffer RPE wash was then repeated and the vacuum was applied for an additional 3 minutes. The plate was then removed from the QIAVAC™ manifold and blotted dry on paper towels. The plate was then re-attached to the QIAVAC™ manifold fitted with a collection tube rack containing 1.2 mL collection tubes. RNA was then eluted by pipetting 140 μL of RNAse free water into each well, incubating 1 minute, and then applying the vacuum for 3 minutes.
Quantitation of growth hormone receptor mRNA levels was accomplished by real-time quantitative PCR using the ABI PRISM™ 7600, 7700, or 7900 Sequence Detection System (PE-Applied Biosystems, Foster City, Calif.) according to manufacturer's instructions. This is a closed-tube, non-gel-based, fluorescence detection system which allows high-throughput quantitation of polymerase chain reaction (PCR) products in real-time. As opposed to standard PCR in which amplification products are quantitated after the PCR is completed, products in real-time quantitative PCR are quantitated as they accumulate. This is accomplished by including in the PCR reaction an oligonucleotide probe that anneals specifically between the forward and reverse PCR primers, and contains two fluorescent dyes. A reporter dye (e.g., FAM or JOE, obtained from either PE-Applied Biosystems, Foster City, Calif., Operon Technologies Inc., Alameda, Calif. or Integrated DNA Technologies Inc., Coralville, Iowa) is attached to the 5′ end of the probe and a quencher dye (e.g., TAMRA, obtained from either PE-Applied Biosystems, Foster City, Calif., Operon Technologies Inc., Alameda, Calif. or Integrated DNA Technologies Inc., Coralville, Iowa) is attached to the 3′ end of the probe. […]

Substance “227507 (antisense eG*eT*e[5mC]*e[5mC]*eT*dT*dG*d[5mC]*dT*d[5mC]*d[5mC]*dA*dG*dG*dT*eT*eA*eG*e[5mC]*eA) [compound 227507]” has an IC50 of roughly 0.0125 µM.

Same assay, conditions: mouse growth hormone receptor mRNA, b.END cells, averages from three experiments

Going from “227470 (antisense e[5mC]*eT*e[5mC]*e[5mC]*eA*dA*dG*dG*dA*dT*dA*d[5mC]*d[5mC]*dA*dG*e[5mC]*eT*eG*eA*eT) [compound 227470]” to “227508 (antisense eT*eT*e[5mC]*e[5mC]*eA*d[5mC]*dT*d[5mC]*dA*d[5mC]*d[5mC]*d[5mC]*d[5mC]*dA*dG*eT*eT*e[5mC]*eA*eT) [compound 227508]”, the “% INHIB” value falls from 82% to 51%.

Compared with “227451 (antisense eA*eT*eG*eA*eG*d[5mC]*dA*dA*dT*dT*d[5mC]*dT*dT*dG*d[5mC]*eA*eG*e[5mC]*eT*eT) [compound 227451]”, “227520 (antisense e[5mC]*eA*eT*e[5mC]*eT*dT*dA*dA*dT*d[5mC]*d[5mC]*dT*dT*dG*dG*eA*eA*eA*e[5mC]*eA) [compound 227520]” is lower in “% INHIB” value: 49% for the first, 42% for the second.

Compared with “227493 (antisense eT*e[5mC]*e[5mC]*e[5mC]*eA*dA*d[5mC]*dA*d[5mC]*dA*dG*dA*dT*dT*dT*eA*eA*eA*eA*e[5mC]) [compound 227493]”, “227444 (antisense eA*eT*eG*eG*e[5mC]*dT*dG*d[5mC]*dG*d[5mC]*d[5mC]*dT*dG*d[5mC]*dT*eT*eG*eG*e[5mC]*eA) [compound 227444]” is higher in “% INHIB” value: 51% for the first, 53% for the second.

Compared with “227495 (antisense eT*e[5mC]*e[5mC]*eT*eG*dA*dA*d[5mC]*dT*dG*d[5mC]*dA*dA*dA*dA*eG*e[5mC]*e[5mC]*eA*e[5mC]) [compound 227495]”, “227456 (antisense eG*eT*e[5mC]*e[5mC]*eA*dG*dT*dT*dG*dA*dG*dG*d[5mC]*d[5mC]*dA*eA*eT*eG*eG*eG) [compound 227456]” is higher in “% INHIB” value: 47% for the first, 97% for the second.

Compared with “227479 (antisense eA*eT*eG*eT*e[5mC]*d[5mC]*dT*d[5mC]*dT*dT*dG*dG*dT*dT*dA*eA*eA*eG*e[5mC]*eT) [compound 227479]”, “227457 (antisense eG*eA*eA*eT*eT*dA*dT*d[5mC]*d[5mC]*dA*dT*d[5mC]*d[5mC]*d[5mC]*dT*eT*e[5mC]*eA*eG*eA) [compound 227457]” is higher in “% INHIB” value: 59% for the first, 67% for the second.

Going from “227504 (antisense eT*eA*e[5mC]*e[5mC]*eT*dG*dA*dG*dA*d[5mC]*d[5mC]*d[5mC]*d[5mC]*dG*d[5mC]*eG*e[5mC]*eA*eG*e[5mC]) [compound 227504]” to “227445 (antisense eT*eA*e[5mC]*e[5mC]*eT*dG*dA*dG*dA*d[5mC]*d[5mC]*dT*d[5mC]*dG*dG*eA*eG*eT*eT*eT) [compound 227445]”, the “% INHIB” value rises from 34% to 69%.

First: 227514 (antisense eA*eT*eG*e[5mC]*eT*d[5mC]*dA*d[5mC]*dG*dT*d[5mC]*dA*dG*d[5mC]*dT*eA*eT*eT*eG*eG) [compound 227514]
Second: 227471 (antisense eA*eG*eG*e[5mC]*eA*d[5mC]*dA*dA*dG*dA*dG*dA*dT*d[5mC]*dA*eG*e[5mC]*eT*eT*e[5mC]) [compound 227471]
The “% INHIB” value of the first is lower: 43% for the first, 52% for the second.

Compared with “227485 (antisense e[5mC]*eG*eT*eG*eG*dT*dG*dT*dA*dG*dT*d[5mC]*dT*dG*dG*eG*eA*e[5mC]*eA*eG) [compound 227485]”, “227449 (antisense eA*e[5mC]*eG*eA*e[5mC]*dA*d[5mC]*dT*dT*dG*dG*dT*dG*dA*dA*eT*e[5mC]*eG*eA*eG) [compound 227449]” is higher in “% INHIB” value: 45% for the first, 69% for the second.

First: 227460 (antisense eA*eA*e[5mC]*eT*eG*dG*dA*dT*dA*dT*d[5mC]*dT*dT*d[5mC]*dT*eT*e[5mC]*eA*e[5mC]*eA) [compound 227460]
Second: 227497 (antisense eT*eA*eA*eA*eT*dG*dT*dT*dT*dT*dG*d[5mC]*dA*dT*dA*eT*e[5mC]*e[5mC]*eA*eA) [compound 227497]
The “% INHIB” value of the first is lower: 43% for the first, 77% for the second.

Going from “227513 (antisense eT*eA*e[5mC]*e[5mC]*eT*dG*dA*dG*dA*d[5mC]*d[5mC]*dT*dG*d[5mC]*dA*eA*eG*eA*e[5mC]*eA) [compound 227513]” to “227510 (antisense e[5mC]*eT*e[5mC]*e[5mC]*eA*dG*dA*d[5mC]*dG*dT*dG*dA*d[5mC]*d[5mC]*d[5mC]*eG*eA*e[5mC]*eT*e[5mC]) [compound 227510]”, the “% INHIB” value rises from 40% to 64%.

Going from “227507 (antisense eG*eT*e[5mC]*e[5mC]*eT*dT*dG*d[5mC]*dT*d[5mC]*d[5mC]*dA*dG*dG*dT*eT*eA*eG*e[5mC]*eA) [compound 227507]” to “227474 (antisense eT*eG*eT*e[5mC]*eG*d[5mC]*dT*dT*dA*d[5mC]*dT*dT*dG*dG*dG*e[5mC]*eA*eT*eA*eA) [compound 227474]”, the “% INHIB” value falls from 89% to 68%.

Test system: serum IGF-I
Assay: Serum IGF-I, additional 1 week study in mice
Format: in vivo, mouse
Conditions: 50 mg/kg once every 2 days, day 7
Protocol: (§1) Male Balb/C(a) mice were prepared and grouped for analysis as in Example 18 above.
Animals (n=10/group) were designated to the following treatment groups:
(§2) Animals were treated and serum IGF-I levels were measured as in Example 18 above. Briefly, for the one-week study, mice were given a subcutaneous dose of saline every second day, and mismatch control or antisense with administration on days 0, 2, 4, 6. On day 7, the animals were anaesthetized with pentobarbital and non-fasting blood samples collected exactly 5 minutes later from the retrobulbar plexus through heparinized capillary tubes under light ether anesthesia. Serum IGF-I measurement was done by radioimmunoassay at day 7.

With “TTACCGTATGGTTCCTCACT (chemistry not given here) [ISIS 260120, unrelated negative control oligonucleotide, reference compound]” the “reduction of serum IGF-I relative to saline control” value was 17%.

Test system: growth hormone receptor mRNA
Assay: Growth hormone receptor mRNA levels in liver, additional 1 week study
Format: in vivo, mouse
Conditions: 50 mg/kg, one-week study
Protocol: as §1, §2
Growth hormone receptor mRNA levels in liver tissue samples from treated and untreated mice in this one-week study were assayed. The growth hormone receptor antisense inhibitor ISIS 227446 reduced growth hormone receptor mRNA levels in liver after the one-week study by 72% at the 50 mg/kg dose, relative to saline control (p<0.0001). The 30 mg/kg dose of ISIS 227446 yielded a 50% decrease in growth hormone receptor mRNA (p<0.0001). The unrelated control oligonucleotide ISIS 260120, at 50 mg/kg, reduced growth hormone receptor mRNA levels by approximately 15% (p>0.05).

With “TTACCGTATGGTTCCTCACT (chemistry not given here) [ISIS 260120, unrelated negative control oligonucleotide, reference compound]” the “reduction of growth hormone receptor mRNA levels in liver relative to saline control” value was “approximately 15%”.

Test system: serum IGF-I
Assay: Serum IGF-I, two-week mouse study
Format: in vivo
Conditions: 30 mg/kg, 2 weeks
Protocol: A two-week study was done in similar fashion to the one-week study in Example 18, this time using ISIS 227446 at doses of 3, 5, 10, 20 and 30 mg/kg. The mismatch control was given at the same doses. Mice were treated with antisense compound or saline every other day for 14 days.
P-values were determined by t-test.

In the case of “TTACCGTATGGTTCCTCACT (chemistry not given here) [ISIS 260120, unrelated negative control oligonucleotide, reference compound]”, the “effect on serum IGF-I levels seen with the mismatch oligonucleotide” value is reported as “not observed”.
